Data: patent publication US20250281649A1, “PROBE DIRECTED TO ENZYME ALDH1A3 AND USE THEREOF IN THE DIAGNOSIS OF GLIOBLASTOMA” (Universita' Degli Studi Del Piemonte Orientale "A. Avogadro", priority 2021, published 2025)

Experiments:
Type in all cases: binding
ALDH1A3 [1] = biological target: T1, ALDH1A3 (Homo sapiens, UniProt P47895); assay: Fluorescence of probes in buffer and in complex with the isoenzymes (Tecan SPARK); settings: in complex with the three isoenzymes, in particular ALDH1A3
T1 construct: His-tag; made in house; host or cells: bacterial cells
T1 sequence (P47895 1-512): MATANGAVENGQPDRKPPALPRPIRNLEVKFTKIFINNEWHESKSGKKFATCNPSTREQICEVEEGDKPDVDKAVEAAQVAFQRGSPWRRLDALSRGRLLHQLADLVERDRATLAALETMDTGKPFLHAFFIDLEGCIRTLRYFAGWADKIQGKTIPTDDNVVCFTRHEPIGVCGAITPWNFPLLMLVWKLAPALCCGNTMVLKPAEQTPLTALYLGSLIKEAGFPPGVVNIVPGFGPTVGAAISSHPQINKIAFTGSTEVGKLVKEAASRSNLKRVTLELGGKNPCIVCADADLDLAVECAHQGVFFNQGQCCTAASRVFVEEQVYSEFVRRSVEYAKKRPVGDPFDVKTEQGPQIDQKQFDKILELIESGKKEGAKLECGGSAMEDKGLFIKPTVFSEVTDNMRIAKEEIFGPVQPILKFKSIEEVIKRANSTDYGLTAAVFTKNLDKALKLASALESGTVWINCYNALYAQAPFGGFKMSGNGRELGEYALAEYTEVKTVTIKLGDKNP
Description: All five compounds were dissolved in DMSO (100%) to obtain two different initial stocks, one at 10 mM and a second one at 1 mM. […] The assay can be executed at a maximum DMSO percentage of 15%. The maximum probe concentration tested was 500 uM—15% DMSO. All the compounds were tested using a Tecan—SPARK, to analyze their absorbance, excitation and emission wavelength. Based on the literature, the absorbance of the curcumin by itself is comprised between 420 and 425 nm. At first, we measured the absorbance, and from those values, we performed a 3D analysis to highlights the correct Ex and Em wavelengths. To avoid any possible background in the fluorescence signal we performed a screening of every possible buffer used in our assays.

ALDH1A2 = biological target: T2, ALDH1A2 (Homo sapiens, UniProt O94788); assay: KD evaluation by probe fluorescence (Tecan SPARK); settings: probe fixed at 10 μM, isoenzyme 100 μM to 1 μM
T2 construct: His-tag; made in house; host or cells: bacterial cells
T2 sequence (O94788 1-518): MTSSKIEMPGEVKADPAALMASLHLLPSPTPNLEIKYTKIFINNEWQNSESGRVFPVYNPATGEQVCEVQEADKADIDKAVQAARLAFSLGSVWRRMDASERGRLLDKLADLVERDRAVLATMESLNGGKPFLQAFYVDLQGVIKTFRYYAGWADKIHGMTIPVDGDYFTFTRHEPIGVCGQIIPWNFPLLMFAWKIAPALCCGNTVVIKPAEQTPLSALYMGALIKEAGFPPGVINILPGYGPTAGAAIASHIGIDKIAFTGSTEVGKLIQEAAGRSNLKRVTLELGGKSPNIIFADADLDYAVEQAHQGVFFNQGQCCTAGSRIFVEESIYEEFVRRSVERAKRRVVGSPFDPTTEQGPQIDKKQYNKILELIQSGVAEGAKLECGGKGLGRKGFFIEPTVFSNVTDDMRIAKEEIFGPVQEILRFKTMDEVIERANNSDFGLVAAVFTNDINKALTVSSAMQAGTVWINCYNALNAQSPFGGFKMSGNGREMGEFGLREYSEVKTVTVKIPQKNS
Description: (§1) A common protocol to express and purify all three members of the ALDHIA subfamily has been optimized. Briefly, induced cells, collected by centrifugation, were re-suspended in an appropriate volume of lysis buffer (50 mM Na2HPO4, 300 mM NaCl, 1 mM β-mercaptoethanol, 20 mM imidazole, pH 7.5) added of benzonase nuclease (250 U/μL) and Protease inhibitor cocktail from SIGMA. After ultracentrifugation, the clarified sample was purified by a His-tag affinity chromatography followed by size-exclusion chromatography, using an AKTA FPLC system, at 4° C. To evaluate the purity and homogeneity of the protein, after each purification step, eluted d fractions were analyzed by SDS-PAGE and the protein quantification was always determined by Bradford protein assay.
(§2) KD evaluation: on a Tecan—SPARK, probe 14 and 13 were tested at a fixed concentration of 10 μM. All the isoenzymes were tested in wide range of concentrations (from 100 μM to 1 μM). The analysis was settled with a BW of 20, monitoring the Em wavelength in range comprised between 520 and 535 nm for probe 14 and 520 and 580 nm for probe 13. The Ex was fixed at 420 nm for probe 14 and 440 nm for probe 13. The test was performed in quadruplicate with all the three isoenzymes. The recipe of the buffer reaction was the same as described before.

ALDH1A3 [2] = biological target: T1, ALDH1A3; assay: KD evaluation by probe fluorescence (Tecan SPARK); settings: ALDH1A3; probe fixed at 10 μM, isoenzyme 100 μM to 1 μM; read-out: KD
Description: as §1, §2

ALDH1A1 = biological target: T3, ALDH1A1 (Homo sapiens, UniProt P00352); assay: KD evaluation by probe fluorescence (Tecan SPARK); settings: probe fixed at 10 μM, isoenzyme 100 μM to 1 μM
T3 construct: His-tag; made in house; host or cells: bacterial cells
T3 sequence (P00352 1-501): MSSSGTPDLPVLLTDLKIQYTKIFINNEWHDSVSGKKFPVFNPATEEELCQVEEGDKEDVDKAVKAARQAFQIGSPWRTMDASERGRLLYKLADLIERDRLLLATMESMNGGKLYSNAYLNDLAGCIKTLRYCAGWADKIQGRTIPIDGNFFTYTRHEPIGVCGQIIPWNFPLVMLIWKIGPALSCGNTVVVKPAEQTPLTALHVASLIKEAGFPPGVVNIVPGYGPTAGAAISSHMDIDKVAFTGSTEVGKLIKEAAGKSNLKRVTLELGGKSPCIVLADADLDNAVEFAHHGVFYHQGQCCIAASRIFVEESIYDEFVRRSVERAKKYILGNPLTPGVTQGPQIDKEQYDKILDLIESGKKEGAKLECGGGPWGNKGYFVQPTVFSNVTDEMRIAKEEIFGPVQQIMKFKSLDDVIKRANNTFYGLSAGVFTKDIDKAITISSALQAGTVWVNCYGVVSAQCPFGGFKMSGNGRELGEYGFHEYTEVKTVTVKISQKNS
Description: as §1, §2

Row | increase of fluorescence in complex with the isoenzymes (ALDH1A3 [1]) | Kd (ALDH1A2) [µM] | Kd (ALDH1A3 [2]) [µM] | Kd (ALDH1A1) [µM] | SMILES
1 | significant positive increment | 125 | 84.3 | 42.4 | CCOC(=O)Cn1cc(COc2ccc(/C=C/C(O)=C/C(=O)/C=C/c3ccc(O)c(OC)c3)cc2OC)nn1 [Compound 14]
2 | significant positive increment | 36.9 | 38.2 | 31.1 | COc1cc(/C=C/C(=O)/C=C(O)/C=C/c2ccc(OCc3cn(CCOc4ccc(C=O)cc4)nn3)c(OC)c2)ccc1O [Compound 13]
